Data on 14 compounds can be found in patent publication US8969373B2, “HCV protease inhibitors” (Shanghai Tangrun Pharmaceuticals Co., Ltd., priority 2011, dated 2015).

Data set [1] concerns HCV replicon (pSGR-399LM) in Huh7 cells. Briefly: Inhibitory activity in the HCV replicon system (Renilla luciferase). Type of data set: cell-based. The following applies: Hepatitis C virus, Huh-7, pSGR-399LM replicon Huh7 cells, 72 hr. The method, then: The Inhibitory Activity of Compounds in the HCV Replicon System
HCV replicon cell-line: The Huh7 cells were transfected with pSGR-399LM replicon DNA and cultured in the DMEM containing 10% FBS and 0.5 mg/mL G418. The cells were split at 1:3 to 1:5 every 3-4 days. The transfected cells were seeded in 96-well plates and cultured at 37° C., 5% CO2 for 24 hr.
Treatment with samples: To the HCV replicon Huh7 cells-line were added different concentration of the samples (i.e. compound Ik, wherein k=1, 2, 3 . . . 42), the each concentration for duplicate, and set no sample control wells. The concentration started at 400 nM, with quarter dilution to form five different concentrations of samples, that is 400 nM, 100 nM, 25 nM, 6.25 nM and 1.56 nM. The samples were added separately, and continued to incubated for 72 hr.
Fluorescence detection: After 72 hr treatment with sample, the cells were lysed and added with Renilla luciferase substrate to detect luminescent signal. The relative luminescent unit (RLU) in the luminometer was read out and used to calculate the inhibition rate of HCV.

Data set [2] concerns HCV (J399EM virus) in Huh7.5.1 cells. Briefly: Inhibition of HCV replication in HCV infected human hepatocellular carcinoma cells (Huh7.5.1), HCV-EGFP fluorescence. Type of data set: cell-based. The following applies: Hepatitis C virus, Huh-7.5.1, 72 h, read-out: HCV infected human hepatocellular carcinoma cells in vitro EC50(nM). The method, then: In Vitro Inhibitory Activity of Compounds in HCV Replication in HCV Infected Human Hepatocellular Carcinoma Cells (Huh7.5.1)
The preparation of Huh7.5.1cells: Huh 7.5.1 cells were seeded at a 96-well plate with 37 and 5% CO2 for 24 hours incubation.
Virus infection: Using the J399EM virus supernatants (moi≈0.1) to infect Huh7.5.1cells. At the same time, the no virus infected cell will be set up as the control. After 8 hours virus infection, the virus will be washed out with PBS.
Drug treatment: The different doses of samples (i.e. the compound Ik, wherein k=1, 2, 3, . . . 42) were added in J399EM infected Huh7.5.1 cells, the each dose for duplicate. At the same time the no sample added in wells will be set up as the control. The test dose of sample is starting from 25 nM or 400 nM, with quarter dilution, 5 doses of sample will be added in the test wells, respectively, then continued for 72 hours incubation.
HCV-EGFP fluorescence detection: After samples treatment for 72 hours, the autofluorescence of HCV-EGFP were measured by the luminometer with excitation of 488 nm, and emission of 516 nm. The related fluorescence unit (RFU) of samples will be read out and used for calculating the inhibitory rates of compounds in HCV replication.

A short description of data set [3]: Pharmacokinetic evaluation in SD rats after oral administration. The conditions noted are these: oral gavage, 10 mg/kg; for bioavailability: read-out: F (absolute bioavailability). Type of data set: in vivo, Sprague-Dawley (SD) rats. As for the experimental part: Pharmacokinetic Evaluation of the Compounds of this Invention
Twenty healthy male Sprague-Dawley (SD) rats with body weight of 200-220 g were divided into 5 groups randomly and each group contains 4 rats. Before the experiment, rats were fasted for 12 h with free access to water. The compound Ik (wherein k=2, 5, 18, 34 or 38) of this invention was administered by oral gavage at a dose level of 10 mg/kg. The compounds were prepared with 0.5% CMC-Na containing 1% Tween 80. The dose volume was 10 mL/kg. The rats were afforded unlimited access to food after 2 h of dosing 0.3 mL of blood samples were collected at 0.25 h, 0.5 h, 1.0 h, 2.0 h, 3.0 h, 5.0 h, 7.0 h, 9.0 h, and 24.0 h, respectively, from postocular venous plexes of the rat. The blood samples were placed in heparin-containing tubes and immediately centrifuged at 11000 rpm for 5 min. Plasma was separated and refrigerated at −20° C. until analysis. LC-MS/MS methods were used to quantify plasma concentrations of the compound Ik.

The mark [4] stands for this setting: male, Sprague-Dawley, rat, plasma.
Setting [5] is: male, Sprague-Dawley, rat, plasma, po, read-out: Cmax.
The mark [6] stands for this setting: male, Sprague-Dawley, rat, plasma, po.

Read-outs that look alike come from different tables or passages of the source. Some results are limits rather than exact numbers.

`C=C[C@@H]1C[C@]1(NC(=O)[C@@H]1C[C@@H](Oc2cc(-c3csc(NC(=O)C(C)C)n3)nc3c2oc2ccc(OC)c(Cl)c23)CN1C(=O)[C@@H](NC(=O)OC(C)(C)C)C(C)(C)C)C(=O)NS(=O)(=O)C1CC1` [Compound 34] had an EC50 in data set [1] of less than 0.1 µM. The EC50 in data set [2] is less than 100 nM. Besides, in data set [3] (setting [4]), the area under the curve AUC(0-inf) was 11 ± 1.1 ng·h/mL, the AUC(0-t) is 9.6 ± 0.9 ng·h/mL, the time of peak concentration (Tmax) turned out to be 24 ± 12 min and the half-life was 30 ± 18 min. In data set [3] (setting [5]), the Cmax is 11.4 ± 4.3 ng/mL. Moreover, the bioavailability in data set [3] (setting [6]) was 1.6%.
`COc1ccc2c(c1)c(O[C@@H]1C[C@H]3C(=O)N[C@]4(C(=O)NS(=O)(=O)C5CC5)C[C@H]4/C=C\CCCCC[C@H](NC(=O)OC(C)(C)C)C(=O)N3C1)nc1c3ccccc3oc21` [Compound 18]: the EC50 in data set [1] is less than 0.1 µM. Also, the EC50 in data set [2] was less than 100 nM. Moreover, in data set [3] (setting [4]), the area under the curve AUC(0-inf) worked out at 3270 ± 303 ng·h/mL, the AUC(0-t) was determined as 3220 ± 336 ng·h/mL, the time of peak concentration (Tmax) was found to be 102 ± 36 min and the half-life was 228 ± 60 min. The Cmax in data set [3] (setting [5]) was 623 ± 60.7 ng/mL. For the same compound, the bioavailability in data set [3] (setting [6]) was roughly 36.1%. The compound also came in with a Cmax in data set [3] (listed as I18, 10 mg/kg) of 623.3 ± 60.7 ng/mL.
For `CC(C)(C)OC(=O)N[C@H]1CCCCC/C=C\[C@@H]2C[C@@]2(C(=O)NS(=O)(=O)C2CC2)NC(=O)[C@@H]2C[C@@H](Oc3nc4c5cc(Cl)ccc5oc4c4ccccc34)CN2C1=O` [Compound 5], in data set [1], the EC50 was less than 0.1 µM. Further, the EC50 in data set [2] was less than 100 nM. In data set [3] (setting [4]), the AUC(0-inf) was determined as 3030 ± 1700 ng·h/mL, the AUC(0-t) amounted to 2880 ± 1720 ng·h/mL, the Tmax turned out to be 75 ± 30 min and the half-life is 209 ± 65.4 min. Besides, the maximum concentration (Cmax) in data set [3] (setting [5]) was found to be 560 ± 139 ng/mL. Moreover, the bioavailability in data set [3] (setting [6]) was 17.1%.
In data set [1], `C=C[C@@H]1C[C@]1(NC(=O)[C@@H]1C[C@@H](Oc2cc(-c3ccccc3)nc3c2oc2ccccc23)CN1C(=O)[C@@H](NC(=O)OC(C)(C)C)C(C)(C)C)C(=O)NS(=O)(=O)C1CC1` [Compound 38] came in with an EC50 of less than 0.1 µM. The concentration giving a half-maximal response (EC50) in data set [2] was less than 100 nM. Further, in data set [3] (setting [4]), the total exposure AUC(0-inf) was found to be 243 ± 81 ng·h/mL, the AUC(0-t) was determined as 239 ± 81 ng·h/mL, the Tmax came out at 37.8 ± 15 min and the half-life is 43.2 ± 18 min. Besides, in data set [3] (setting [5]), the Cmax was 150 ± 42 ng/mL. In data set [3] (setting [6]), the bioavailability was found to be 8.7%.
As to `C=C[C@@H]1C[C@]1(NC(=O)[C@@H]1C[C@@H](Oc2nc3c4cc(Cl)ccc4oc3c3ccccc23)CN1C(=O)[C@@H](CC(=O)OC(C)(C)C)C(C)(C)C)C(=O)NS(=O)(=O)C1CC1` [Compound 13], the values for the 50% effective concentration (EC50) in data set [1] and in data set [2] were 0.1 to 1 µM and 100 to 1000 nM, respectively.
On to `CC(C)(C)OC(=O)N[C@H]1CCCCC/C=C\[C@@H]2C[C@@]2(C(=O)NS(=O)(=O)C2CC2)NC(=O)[C@@H]2C[C@@H](Oc3nc4c5ccccc5oc4c4ccc(Cl)cc34)CN2C1=O` [Compound 17], for which the EC50 in data set [1] is less than 0.1 µM; in data set [2], less than 100 nM.
On the same counts, the results for `C=C[C@@H]1C[C@]1(NC(=O)[C@@H]1C[C@@H](Oc2cc(-c3cnc(C(C)(C)O)s3)nc3c2oc2ccc(OC)c(Cl)c23)CN1C(=O)[C@@H](NC(=O)OC(C)(C)C)C(C)(C)C)C(=O)NS(=O)(=O)C1CC1` [Compound 39] are less than 0.1 µM and less than 100 nM.
On the same counts, the results for `C=C[C@@H]1C[C@]1(NC(=O)[C@@H]1C[C@@H](Oc2cc(-c3ccccc3)nc3c2sc2cc(F)ccc23)CN1C(=O)[C@@H](NC(=O)OC(C)(C)C)C(C)(C)C)C(=O)NS(=O)(=O)C1CC1` [Compound 7] are less than 0.1 µM and less than 100 nM.
Taken in the same sequence, the figures for `C=C[C@@H]1C[C@]1(NC(=O)[C@@H]1C[C@@H](Oc2cc(-c3cnc(C(C)(C)O)s3)nc3c2oc2ccc(OC)c(Br)c23)CN1C(=O)[C@@H](NC(=O)OC(C)(C)C)C(C)(C)C)C(=O)NS(=O)(=O)C1CC1` [Compound 40] were less than 0.1 µM and less than 100 nM.
As to `CC(C)(C)OC(=O)N[C@H]1CCCCC/C=C\[C@@H]2C[C@@]2(C(=O)NS(=O)(=O)C2CC2)NC(=O)[C@@H]2C[C@@H](Oc3nc4c5ccccc5oc4c4ccc(Br)cc34)CN2C1=O` [Compound 16], the EC50 is less than 0.1 µM in data set [1] and less than 100 nM in data set [2].
On the same counts, the results for `C=C[C@@H]1C[C@]1(NC(=O)[C@@H]1C[C@@H](Oc2cc(-c3csc(NC(=O)C(C)C)n3)nc3c2oc2ccc(OC)c(Br)c23)CN1C(=O)[C@@H](NC(=O)OC(C)(C)C)C(C)(C)C)C(=O)NS(=O)(=O)C1CC1` [Compound 35] are less than 0.1 µM and less than 100 nM.
On the same counts, the results for `C=C[C@@H]1C[C@]1(NC(=O)[C@@H]1C[C@@H](Oc2nc3c4cc(Cl)ccc4oc3c3ccccc23)CN1C(=O)[C@@H](NC(=O)OC(C)(C)C)C(C)(C)C)C(=O)NS(=O)(=O)C1CC1` [Compound 11] are less than 0.1 µM and 100 to 1000 nM.
Taken in the same sequence, the figures for `C=C[C@@H]1C[C@]1(NC(=O)[C@@H]1C[C@@H](Oc2nc3c4cc(Cl)ccc4oc3c3ccccc23)CN1C(=O)[C@@H](CC(=O)N1CCCCC1)C(C)(C)C)C(=O)NS(=O)(=O)C1CC1` [Compound 14, (2S,4R)-1-((S)-2-tert-butyl-4-oxo-4-(piperidin-1-yl)butanoyl)-4-(8-chlorobenzofuro[3,2-c]isoquinolin-5-yloxy)-N-((1R,2S)-1-(cyclopropylsulfonylcarbamoyl)-2-vinylcyclopropyl)pyrrolidine-2-carboxamide] were less than 0.1 µM and 100 to 1000 nM.
As for `COc1ccc2oc3c4ccccc4c(O[C@@H]4C[C@H]5C(=O)N[C@]6(C(=O)NS(=O)(=O)C7CC7)C[C@H]6/C=C\CCCCC[C@H](NC(=O)OC(C)(C)C)C(=O)N5C4)nc3c2c1` [Compound 2, tert-butyl(2R,6S,13aS,14aR,16aS,Z)-14a-(cyclopropylsulfonylcarbamoyl)-2-(8-methoxybenzofuro[3,2-c]isoquinolin-5-yloxy)-5,16-dioxo-1,2,3,5,6,7,8,9,10,11,13a,14,14a,15,16,16a-hexadecahydrocyclopropa[e]pyrrolo[1,2-a][1,4]diazacyclopentadecin-6-yl carbamate], in data set [1], the EC50 was less than 0.1 µM. Moreover, the half-maximal effective concentration (EC50) in data set [2] is less than 100 nM. For the same compound, in data set [3] (setting [4]), the area under the curve AUC(0-inf) was found to be 1780 ± 53.7 ng·h/mL, the AUC(0-t) turned out to be 158 ± 49.8 ng·h/mL, the time of peak concentration (Tmax) stood at 24 ± 6 min and the half-life is 186 ± 78 min. For the same compound, in data set [3] (setting [5]), the Cmax worked out at 49.7 ± 11 ng/mL. Further, the bioavailability in data set [3] (setting [6]) stood at 1.8%.
